Like-named read-outs stand apart in the source and are kept apart here. Square brackets hold non-standard residues; d marks the D form. Peptide text beside a SMILES is read from it. Trp(5-OH) = N[C@@H](Cc1c[nH]c2ccc(O)cc12)C(=O)O
Test system: brain levels of L-5-hydroxytryptophan (L-5-HTP), serotonin (5-HT) and 5-hydroxyindoleacetic acid (5-HIAA)
Test: Biochemical analysis of brain levels of L-5-HTP, 5-HT and 5-HIAA one hour after a single dose (technique of CURZON and GREEN)
Format: in vivo, rats
Conditions: brain level, adult rats, one hour after administration, percentage increase relative to control animals
Description: Biochemical analysis of the brain levles of L-5-hydroxytryptophan (L-5-HTP), serotonin (5-HT) and its first metabolite, 5-hydroxyindoleacetic acid (5- HIAA), was carried out one hour after the administration of a single dose to adult rats by the technique of CURZON and GREEN. Three doses were studied, i.e. 10, 25 and 50 mg/kg, 10 animals being used per dose. Table I below indicates the percentage increases in 5-HTP, 5-HT and 5-HIAA relative to the levels found in the control animals: […]

| Compound | %, relative to the controls, of 5-HIAA at dose of 10 mg/kg (single dose 10 mg/kg) | %, relative to the controls, of 5-HT at dose of 10 mg/kg (single dose 10 mg/kg) | %, relative to the controls, of L-5-HTP at dose of 10 mg/kg (single dose 10 mg/kg) | %, relative to the controls, of 5-HIAA at dose of 25 mg/kg (single dose 25 mg/kg) | %, relative to the controls, of 5-HT at dose of 25 mg/kg (single dose 25 mg/kg) | %, relative to the controls, of L-5-HTP at dose of 25 mg/kg (single dose 25 mg/kg) | %, relative to the controls, of 5-HIAA at dose of 50 mg/kg (single dose 50 mg/kg) | %, relative to the controls, of 5-HT at dose of 50 mg/kg (single dose 50 mg/kg) | %, relative to the controls, of L-5-HTP at dose of 50 mg/kg (single dose 50 mg/kg) | change in vivo at 10 mg/kg (Rattus norvegicus, 1 h, single dose 10 mg/kg, read-out: %, relative to the controls, of L-5-HTP at dose of 10 mg/kg) | change in vivo at 25 mg/kg (Rattus norvegicus, 1 h, single dose 25 mg/kg, read-out: %, relative to the controls, of 5-HIAA at dose of 25 mg/kg) | change in vivo at 25 mg/kg (Rattus norvegicus, 1 h, single dose 25 mg/kg, read-out: %, relative to the controls, of L-5-HTP at dose of 25 mg/kg) | change in vivo at 50 mg/kg (Rattus norvegicus, 1 h, single dose 50 mg/kg, read-out: %, relative to the controls, of 5-HIAA at dose of 50 mg/kg) | change in vivo at 50 mg/kg (Rattus norvegicus, 1 h, single dose 50 mg/kg, read-out: %, relative to the controls, of 5-HT at dose of 50 mg/kg) |
| --- | --- | --- | --- | --- | --- | --- | --- | --- | --- | --- | --- | --- | --- | --- |
| 5-Hydroxy-L-tryptophyl-γ-aminobutyric acid [Example 20] | 40% | 5% | 60% | 100% | 5% | 200% | 150% | 15% | 400% | – | – | – | – | – |
| CCOC(=O)CC[C@H](NC(=O)[C@@H](N)Cc1c[nH]c2ccc(O)cc12)C(=O)OCC.Cl [Example 3, Diethyl 5-hydroxy-L-tryptophyl-L-glutamate hydrochloride] (H-[Trp(5-OH)]-Glu(OEt)-OEt) | 50% | 10% | – | – | – | – | – | – | – | 100% | 150% | 400% | 200% | 200% |
